According to patent publication US20240208912A1 (Mirati Therapeutics, Inc., priority 2021, published 2024):
Where two headings read alike, the source gives them in different places.

Assays:
[1] = system: HCT116 homozygous MTAP knockout cells; assay: Proliferation assay (CellTiter-Glo, 10 days) in HCT116 homozygous MTAP knockout cells; format: cell-based; conditions: CellTiter-Glo after 10 days of treatment, read-out: Proliferation IC50 (nM) HCT116 MTAP_KO
Method: HCT116 cells were genetically engineered to knock out the function of both MTAP alleles using a CRISPR/Cas9 system and an sgRNA targeting the MTAP gene. Following Cas9/MTAP sgRNA transduction, clones were screened to confirm that each allele of the MTAP gene had been inactivated (i.e., homozygous MTAP knock out) creating an MTAP-deficient cell.
Control samples were analyzed in parallel.
Briefly, on Day 0, 250 HCT116 parental or HCT116 homozygous MTAP knockout cell were seeded in 96 well plates in McCoy's 5A supplemented with […] fetal bovine serum and pen/strep and the cells were incubated overnight at 37° C. plus 5% CO2.
The following day, cells were treated with DMSO vehicle control or a dose response of PRMT5 inhibitors and incubated at 37 C plus 5% CO2 for five days. On Day 6, the cells were trypsinized and split 1:10 into new 96-well plates with fresh medium containing the same concentration of PRMT5 inhibitor and incubated for an additional 5 days at 37° C. plus 5% CO^2.
On Day 11, the viability of the cells was measured using a CTG assay kit (CellTiter-Glo; Promega cat.no G7573) in accordance with the manufacturer's instructions. The IC50 values for each compound after 10 days of treatment were calculated using GraphPad PRISM software.

[2] = molecular target: T1, PRMT5/MEP50 complex (Homo sapiens, UniProt O14744); assay: PRMT5:MEP50 HotSpot Assay (full-length histone H2A substrate, plus and minus MTA); format: biochemical; conditions: IC50 + 2 μM MTA, in the presence of 2 μM MTA
T1 construct: purchased Reaction Biology Corporation
T1 sequence (O14744 2-637 limits assumed): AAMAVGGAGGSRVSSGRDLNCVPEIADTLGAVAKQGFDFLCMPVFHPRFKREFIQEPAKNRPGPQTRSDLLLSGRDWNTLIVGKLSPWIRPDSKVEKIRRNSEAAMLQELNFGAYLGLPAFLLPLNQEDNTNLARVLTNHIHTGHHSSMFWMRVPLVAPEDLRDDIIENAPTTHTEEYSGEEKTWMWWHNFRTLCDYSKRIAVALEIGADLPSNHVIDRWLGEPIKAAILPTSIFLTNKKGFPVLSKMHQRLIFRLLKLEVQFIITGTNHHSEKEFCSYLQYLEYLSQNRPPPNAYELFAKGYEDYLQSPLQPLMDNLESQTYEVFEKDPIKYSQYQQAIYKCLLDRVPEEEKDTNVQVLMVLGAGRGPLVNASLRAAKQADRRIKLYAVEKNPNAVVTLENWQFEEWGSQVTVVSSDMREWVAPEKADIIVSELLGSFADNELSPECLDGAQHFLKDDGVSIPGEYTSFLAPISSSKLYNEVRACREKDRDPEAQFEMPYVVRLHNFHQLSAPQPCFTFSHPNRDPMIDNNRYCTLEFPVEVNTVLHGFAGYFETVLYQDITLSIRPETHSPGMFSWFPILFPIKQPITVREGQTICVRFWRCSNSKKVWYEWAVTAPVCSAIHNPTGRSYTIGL
T1 sequence (Q9BQA1 2-342 partner limits assumed): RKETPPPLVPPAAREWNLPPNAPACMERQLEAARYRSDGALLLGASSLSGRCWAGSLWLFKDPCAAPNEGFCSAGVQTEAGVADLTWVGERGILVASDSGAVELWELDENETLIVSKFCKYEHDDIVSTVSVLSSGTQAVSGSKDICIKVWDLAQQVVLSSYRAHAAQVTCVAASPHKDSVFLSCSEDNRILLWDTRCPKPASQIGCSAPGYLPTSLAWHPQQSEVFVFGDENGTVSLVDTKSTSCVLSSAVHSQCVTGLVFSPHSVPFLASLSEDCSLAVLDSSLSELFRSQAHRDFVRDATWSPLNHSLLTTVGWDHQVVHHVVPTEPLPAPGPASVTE
Method: The PRMT5 inhibitory activity of compounds of the present invention was determined using either a PRMT5:MEP50 FlashPlate Assay (Reaction Biology Corporation) or a PRMT5:MEP50 HotSpot Assay (Reaction Biology Corporation).
The assay uses recombinant full-length hi stone H2A as the PRMT5 substrate. […] The reaction was stopped and transferred to filter paper for detection. The amount of tritiated H2A in each sample was determined using a scintillation counter.

| SMILES | IC50 ([1]; Homo sapiens, HCT-116, 240 h) [nM] | IC50 [2] [µM] | IC50 [1] [nM] |
| --- | --- | --- | --- |
| CCOc1cc(-c2cnn(C)c2-c2c(F)c(C)c3ccccc3c2C#N)cc2c(CN)n[nH]c(=O)c12 (single isomer, unassigned) [Example 16-81, (P)-2-[4-[4-(aminomethyl)-8-ethoxy-1-oxo-2H-phthalazin-6-yl]-2-methyl-pyrazol-3-yl]-3-fluoro-4-methyl-naphthalene-1-carbonitrile] | 9 | 0.0421 |  |
| COc1cccc2c(C#N)c(-c3c(-c4ccc5c(=O)[nH]nc(CN)c5c4)cnn3C)sc12 [Example 4-268, 2-[4-[4-(aminomethyl)-1-oxo-2H-phthalazin-6-yl]-2-methyl-pyrazol-3-yl]-7-methoxy-benzothiophene-3-carbonitrile] | 201 | 0.165 |  |
| CCOc1cc(-c2cnn(C)c2-c2c(F)c(Cl)c3ccccc3c2C#N)cc2c(CN)n[nH]c(=O)c12 (single isomer, unassigned) [Example 16-80, (M)-2-[4-[4-(aminomethyl)-8-ethoxy-1-oxo-2H-phthalazin-6-yl]-2-methyl-pyrazol-3-yl]-4-chloro-3-fluoro-naphthalene-1-carbonitrile] |  | 0.415 | 13 |
| Cn1ncc(-c2cc(Cl)c3c(=O)[nH]nc(CN)c3c2)c1-c1c(F)cc2ccccc2c1C#N (single isomer, unassigned) [Example 16-11, (P)-2-(4-(4-(aminomethyl)-8-chloro-1-oxo-1,2-dihydrophthalazin-6-yl)-1-methyl-1H-pyrazol-5-yl)-3-fluoro-1-naphthonitrile] |  | 0.102 | 5 |
| Cn1ncc(-c2cc(Cl)c3c(=O)[nH]nc(CN)c3c2)c1-c1c(F)c(Cl)c2ccccc2c1C#N (single isomer, unassigned) [Example 16-58, (M)-2-[4-[4-(aminomethyl)-8-chloro-1-oxo-2H-phthalazin-6-yl]-2-methyl-pyrazol-3-yl]-4-chloro-3-fluoro-naphthalene-1-carbonitrile] |  | 0.00461 | 15 |
| Cn1ncc(-c2ccc3c(=O)[nH]nc(CN)c3c2)c1-c1c(C#N)c(OC2CC2)c2ccccc2c1Cl (single isomer, unassigned) [Example 16-24, (M)-3-[4-[4-(aminomethyl)-1-oxo-2H-phthalazin-6-yl]-2-methyl-pyrazol-3-yl]-4-chloro-1-(cyclopropoxy)naphthalene-2-carbonitrile] |  | 0.0372 | 61 |
| Cn1ncc(-c2ccc3c(=O)[nH]nc(CN)c3c2)c1-c1c(C#N)cc2ccccc2c1F (single isomer, unassigned) [Example 16-54, (M)-3-[4-[4-(aminomethyl)-1-oxo-2H-phthalazin-6-yl]-2-methyl-pyrazol-3-yl]-4-fluoro-naphthalene-2-carbonitrile] |  | 0.00919 | 82 |
| Cn1ncc(-c2ccc3c(=O)[nH]nc(C4(N)COC4)c3c2)c1-c1sc2ccccc2c1C#N [Example 9-9, 2-(4-(4-(3-aminooxetan-3-yl)-1-oxo-1,2-dihydrophthalazin-6-yl)-1-methyl-1H-pyrazol-5-yl)benzo[b]thiophene-3-carbonitrile] | 10000 |  |  |
| Cn1ncc(-c2ccc3c(=O)[nH]nc(CN)c3c2)c1-c1c(C#N)cc2cccnc2c1Cl (atropisomer, axis not shown; (M)) [Example 16-84, (M)-7-(4-(4-(aminomethyl)-1-oxo-1,2-dihydrophthalazin-6-yl)-1-methyl-1H-pyrazol-5-yl)-8-chloroquinoline-6-carbonitrile] |  |  | 123 |
| COCc1ccc2c(C#N)c(-c3c(-c4ccc5c(=O)[nH]nc(CN)c5c4)cnn3C)sc2c1 [Example 4-271, 2-(4-(4-(aminomethyl)-1-oxo-1,2-dihydrophthalazin-6-yl)-1-methyl-1H-pyrazol-5-yl)-6-(methoxymethyl)benzo[b]thiophene-3-carbonitrile] | 289 |  |  |
| Cn1ncc(-c2ccc3c(=O)[nH]nc(CN)c3c2)c1-c1cc(Cl)c2c(c1C#N)OCCC2 [Example 4-261, 7-[4-[4-(aminomethyl)-1-oxo-2H-phthalazin-6-yl]-2-methyl-pyrazol-3-yl]-5-chloro-chromane-8-carbonitrile] | 81 |  |  |
| Cn1ncc(-c2ccc3c(=O)[nH]nc(CN)c3n2)c1-c1sc2ccccc2c1C#N [Example 17-3, 2-[4-[8-(aminomethyl)-5-oxo-6H-pyrido[2,3-d]pyridazin-2-yl]-2-methyl-pyrazol-3-yl]benzothiophene-3-carbonitrile] | 278 |  |  |
| Cn1ncc(-c2ccc3c(=O)[nH]nc(CN)c3c2)c1-c1c(F)cc2c(c1C#N)OCO2 (atropisomer, axis not shown; (P)) [Example 16-87, (P)-5-[4-[4-(aminomethyl)-1-oxo-2H-phthalazin-6-yl]-2-methyl-pyrazol-3-yl]-6-fluoro-1,3-benzodioxole-4-carbonitrile] | 158 |  |  |
| Cn1ncc(-c2ccc3c(=O)[nH]nc(CN)c3c2)c1-c1cc2ccccn2c1C#N [Example 4-227, 2-(4-(4-(aminomethyl)-1-oxo-1,2-dihydrophthalazin-6-yl)-1-methyl-1H-pyrazol-5-yl)indolizine-3-carbonitrile] |  |  | 2370 |

Second part, the compound after the results:

| IC50 ([1]; Homo sapiens, HCT-116, 240 h) [nM] | IC50 [2] [µM] | IC50 [1] [nM] | SMILES |
| --- | --- | --- | --- |
| 5 | 0.084 |  | Cc1cnc2cc(F)c(-c3c(-c4ccc5c(=O)[nH]nc(CN)c5c4)cnn3C)c(C#N)c2c1 (atropisomer, axis not shown; (M)) [Example 16-35, (M)-6-[4-[4-(aminomethyl)-1-oxo-2H-phthalazin-6-yl]-2-methyl-pyrazol-3-yl]-7-fluoro-3-methyl-quinoline-5-carbonitrile] |
|  | 0.454 | 2670 | Cn1ncc(-c2ccc3c(=O)[nH]nc(CN)c3c2)c1-c1c(C#N)cc2ncccc2c1F (single isomer, unassigned) [Example 16-91, (P)-6-[4-[4-(aminomethyl)-1-oxo-2H-phthalazin-6-yl]-2-methyl-pyrazol-3-yl]-5-fluoro-quinoline-7-carbonitrile] |
|  | 0.821 | 3290 | Cc1cnc2c(C#N)c(-c3c(-c4ccc5c(=O)[nH]nc(CN)c5c4)cnn3C)c(F)c(C)c2c1 (atropisomer, axis not shown; (P)) [Example 16-93, (P)-7-(4-(4-(aminomethyl)-1-oxo-1,2-dihydrophthalazin-6-yl)-1-methyl-1H-pyrazol-5-yl)-6-fluoro-3,5-dimethylquinoline-8-carbonitrile] |
|  | 0.0147 | 39 | Cc1c(F)c(-c2c(-c3cc(Cl)c4c(=O)[nH]nc(CN)c4c3)cnn2C)c(C#N)c2ccccc12 (single isomer, unassigned) [Example 16-60, (M)-2-[4-[4-(aminomethyl)-8-chloro-1-oxo-2H-phthalazin-6-yl]-2-methyl-pyrazol-3-yl]-3-fluoro-4-methyl-naphthalene-1-carbonitrile] |
|  | 0.195 | 458 | Cn1ncc(-c2ccc3c(=O)[nH]nc(CN)c3c2)c1-c1c(F)cc2ncc(Cl)cc2c1C#N (single isomer, unassigned) [Example 16-32, (P)-6-[4-[4-(aminomethyl)-1-oxo-2H-phthalazin-6-yl]-2-methyl-pyrazol-3-yl]-3-chloro-7-fluoro-quinoline-5-carbonitrile] |
|  | 0.166 | 80 | Cc1cc(-c2cnn(C)c2-c2c(F)cc3ncc(Cl)cc3c2C#N)cc2c(CN)n[nH]c(=O)c12 (single isomer, unassigned) [Example 16-49, (P)-6-[4-[4-(aminomethyl)-8-methyl-1-oxo-2H-phthalazin-6-yl]-2-methyl-pyrazol-3-yl]-3-chloro-7-fluoro-quinoline-5-carbonitrile] |
|  |  | 626 | Cc1c(F)c(-c2c(-c3ccc4c(=O)[nH]nc(CN)c4c3)cnn2C)c(C#N)c2cc(Cl)cnc12 (atropisomer, axis not shown; (P)) [Example 16-33] |
|  |  | 183 | Cn1ncc(-c2ccc3c(=O)[nH]nc(CN)c3c2)c1-c1c(C#N)cc2ncccc2c1Cl (atropisomer, axis not shown; (M)) [Example 16-86, (M)-6-(4-(4-(aminomethyl)-1-oxo-1,2-dihydrophthalazin-6-yl)-1-methyl-1H-pyrazol-5-yl)-5-chloroquinoline-7-carbonitrile] |
|  |  | 20 | Cc1c(F)c(-c2c(-c3ccc4c(=O)[nH]nc(CN)c4c3)cnn2C)c(C#N)c2cc(Cl)cnc12 (atropisomer, axis not shown; (M)) [Example 16-34, (M)-6-[4-[4-(aminomethyl)-1-oxo-2H-phthalazin-6-yl]-2-methyl-pyrazol-3-yl]-3-chloro-7-fluoro-8-methyl-quinoline-5-carbonitrile] |
|  |  | 4380 | Cn1ncc(-c2ccc3c(=O)[nH]nc(CN)c3c2)c1-c1c(C#N)cc2ncccc2c1Cl (atropisomer, axis not shown; (P)) [Example 16-85, (P)-6-(4-(4-(aminomethyl)-1-oxo-1,2-dihydrophthalazin-6-yl)-1-methyl-1H-pyrazol-5-yl)-5-chloroquinoline-7-carbonitrile] |
